Blank lines part the entries; values can stand above or below the compound they belong to.
Legend:
Format in all cases: physicochemical
[1] = Powder dissolution, USP/NF paddle method with HPLC analysis; conditions: 500 mg in 900 mL water, 37 °C, 75 rpm; for Amoxicillin released in solution Mean: mean of 3; for Amoxicillin released in solution #1: replicate #1; for Amoxicillin released in solution #2: replicate #2; for Amoxicillin released in solution #3: replicate #3
Procedure: Dissolution analysis of amoxicillin trihydrate powder samples was carried out using the USP/NF paddle method at a rotational speed of 75 rpm. Ultrapure ELGA laboratory water (900 mL) was used as dissolution medium. Media were equilibrated to 37.0±0.5° C. prior to dissolution. Amoxicillin trihydrate sample powder (500 mg) was directly added to the dissolution apparatus (Electrolab USP-24, India). Samples were collected at 0, 1, 3, 5, 10, 15, 30, 60 and 90 min, filtered through 0.2 μm filters and analyzed by HPLC. Dissolution profiles were constructed by plotting the percentage amoxicillin released against time.
The HPLC system (Shimadzu Corporation, Kyoto, Japan) comprised of an SCL-10A VP system controller, LC-10AT VP liquid chromatograph, FCV-10AL VP flow control valve, DGU-14A degasser, SIL-10AD VP auto-injector, CTO-10AS VP column oven, SPD-M20A prominence diode array (PDA) detector and data acquisition Class-VP 6.10 software. The HPLC method was adopted from the United States Pharmacopoeia (USP). The method was validated for linearity, precision, accuracy and intra- and inter-day variability. The mobile phase was 50 mM monobasic potassium phosphate:methanol (96:4, v/v, pH 5.0). All analyses were carried out using Lichrospher® 100 RP-18e analytical column (5 μm, Merck KGaA, Darmstadt, Germany) under isocratic conditions at a flow rate of 1.0 mL·min^−1 at 25° C. with 20 μL injection volume. Effluent was monitored at a wavelength of 230 nm. Samples for calibration curve generation were prepared in 50 mM monobasic potassium phosphate:methanol 1:1 (v/v) proportion at a concentration range of 1 to 600 μg·mL^−1.
The three non-micronized (i.e. entries 1-3 of Table 1) and micronized (i.e. entries 4-6 of Table 1) amoxicillin trihydrate samples of Example 1 were subjected to a powder dissolution test (in triplicate) as outlined in the General section.

[2] = Particle size distribution by laser diffraction (Malvern); conditions: trihydrate
Procedure: Particle size distribution values D10, D50, D90 and D100 were determined using laser diffraction applying Malvern equipment. A suitable apparatus for determining D10, D50, D90 and D100 is a Malvern particle sizer 2600 C or a Malvern Zeta Sizer.
(§1) Parameters operated were: • Augar Speed: 5-90 rpm • Primary Air Pressure: 2-8 kg·cm^−2 • Secondary Air Pressure: 4-10 kg·cm^−2 The surface area (in triplicate), average particle size and contact angle (in quadruplicate) were determined as outlined in the General section. The purity of the amoxicillin trihydrate samples was 99.4±0.3% and were void of dichloromethane, isopropanol, pivalic acid and triethyl amine.

[3] = Specific powder surface area by nitrogen gas sorption (BET); conditions: triplicate, trihydrate
Procedure: Specific powder surface area was determined using nitrogen gas sorption (Smartsorb, Smart Instruments, Mumbai, India). Prior to measurements, samples were regenerated by degassing to remove moisture and contamination. The regenerated sample was dipped in liquid nitrogen and the quantity of the adsorbed gas was measured using a thermal conductivity detector and subsequently integrated using an electronic circuit in terms of counts. The instrument was calibrated by injecting a known quantity of nitrogen. The measured parameters were subsequently used to calculate the surface area of the sample by employing the adsorption theories of Brunauer, Emmett and Teller (BET).
as §1

[4] = Contact angle by sessile drop method (water); conditions: ambient conditions, trihydrate
Procedure: Contact angles of amoxicillin trihydrate powder samples were measured by the sessile drop method using an Drop Shape Analyzer instrument (FTA 1000, First Ten Angstrom, Virginia, USA). Powder samples were mounted on double sided adhesive tape adhered to a glass slide and excess powder was removed by tapping the slide. A drop of probe liquid (water) was dispersed onto the sample surface and video images were captured by the FTA image analyzer. The contact angle was calculated by the instrument by fitting a mathematical expression to the shape of the drop followed by calculating the slope of the tangent to the drop at the liquid-solid-vapor interface line. The surface tension of ultrapure ELGA laboratory water was measured to be 73±0.5 mN·m^−1 at 25° C. All measurements were performed in air under ambient conditions and an average of four measurements was reported in the below Examples.
as §1

Amoxicillin released in solution Mean ([1]; 0 min): 0% | Amoxicillin released in solution #1 ([1]; 0 min): 0% | Amoxicillin released in solution #2 ([1]; 0 min): 0% | Amoxicillin released in solution #3 ([1]; 0 min): 0% | Amoxicillin released in solution Mean ([1]; 1 min, trihydrate): 59.73% | Amoxicillin released in solution #1 ([1]; 1 min, trihydrate): 57.32% | Amoxicillin released in solution #2 ([1]; 1 min, trihydrate): 60.63% | Amoxicillin released in solution #3 ([1]; 1 min, trihydrate): 61.23% | Amoxicillin released in solution Mean ([1]; 3 min, trihydrate): 97.65% | Amoxicillin released in solution #1 ([1]; 3 min, trihydrate): 96.94% | Amoxicillin released in solution #2 ([1]; 3 min, trihydrate): 97.25% | Amoxicillin released in solution #3 ([1]; 3 min, trihydrate): 98.77% | Amoxicillin released in solution Mean ([1]; 5 min, trihydrate): 99.78% | Amoxicillin released in solution #1 ([1]; 5 min, trihydrate): 99.68% | Amoxicillin released in solution #2 ([1]; 5 min, trihydrate): 100.87% | Amoxicillin released in solution #3 ([1]; 5 min, trihydrate): 98.80% | Amoxicillin released in solution Mean ([1]; 10 min, trihydrate): 99.25% | Amoxicillin released in solution #1 ([1]; 10 min, trihydrate): 99.06% | Amoxicillin released in solution #2 ([1]; 10 min, trihydrate): 99.42% | Amoxicillin released in solution #3 ([1]; 10 min, trihydrate): 99.27% | Amoxicillin released in solution Mean ([1]; 15 min, trihydrate): 100.29% | Amoxicillin released in solution #1 ([1]; 15 min, trihydrate): 100.69% | Amoxicillin released in solution #2 ([1]; 15 min, trihydrate): 100.64% | Amoxicillin released in solution #3 ([1]; 15 min, trihydrate): 99.55% | Amoxicillin released in solution Mean ([1]; 30 min, trihydrate): 99.18% | Amoxicillin released in solution #1 ([1]; 30 min, trihydrate): 99.21% | Amoxicillin released in solution #2 ([1]; 30 min, trihydrate): 99.18% | Amoxicillin released in solution #3 ([1]; 30 min, trihydrate): 99.14% | Amoxicillin released in solution Mean ([1]; 60 min, trihydrate): 100.16% | Amoxicillin released in solution #1 ([1]; 60 min, trihydrate): 99.14% | Amoxicillin released in solution #2 ([1]; 60 min, trihydrate): 100.41% | Amoxicillin released in solution #3 ([1]; 60 min, trihydrate): 100.92% | Amoxicillin released in solution Mean ([1]; 90 min, trihydrate): 99.44% | Amoxicillin released in solution #1 ([1]; 90 min, trihydrate): 99.58% | Amoxicillin released in solution #2 ([1]; 90 min, trihydrate): 99.28% | Amoxicillin released in solution #3 ([1]; 90 min, trihydrate): 99.46% | Average Particle Size D10 [2]: 13.1 μm | Average Particle Size D50 [2]: 39.3 μm | Average Particle Size D90 [2]: 91.7 μm | Average Particle Size D100 [2]: 230.1 μm | Surface Area Mean ± SD (n = 3) [3]: 0.72 ± 0.16 m^2 · g^−1 | Contact Angle Mean ± SD (n = 4) [4]: 71.54 ± 1.08
Compound: CC1(C)S[C@@H]2[C@H](NC(=O)[C@H](N)c3ccc(O)cc3)C(=O)N2[C@H]1C(=O)O.O.O.O [entry 3, amoxicillin trihydrate]

Amoxicillin released in solution Mean ([1]; 0 min): 0% | Amoxicillin released in solution #1 ([1]; 0 min): 0% | Amoxicillin released in solution #2 ([1]; 0 min): 0% | Amoxicillin released in solution #3 ([1]; 0 min): 0% | Amoxicillin released in solution Mean ([1]; 1 min, trihydrate): 56.64% | Amoxicillin released in solution #1 ([1]; 1 min, trihydrate): 54.49% | Amoxicillin released in solution #2 ([1]; 1 min, trihydrate): 57.74% | Amoxicillin released in solution #3 ([1]; 1 min, trihydrate): 57.67% | Amoxicillin released in solution Mean ([1]; 3 min, trihydrate): 77.11% | Amoxicillin released in solution #1 ([1]; 3 min, trihydrate): 76.32% | Amoxicillin released in solution #2 ([1]; 3 min, trihydrate): 76.89% | Amoxicillin released in solution #3 ([1]; 3 min, trihydrate): 78.12% | Amoxicillin released in solution Mean ([1]; 5 min, trihydrate): 84.17% | Amoxicillin released in solution #1 ([1]; 5 min, trihydrate): 85.25% | Amoxicillin released in solution #2 ([1]; 5 min, trihydrate): 82.78% | Amoxicillin released in solution #3 ([1]; 5 min, trihydrate): 84.47% | Amoxicillin released in solution Mean ([1]; 10 min, trihydrate): 87.43% | Amoxicillin released in solution #1 ([1]; 10 min, trihydrate): 88.15% | Amoxicillin released in solution #2 ([1]; 10 min, trihydrate): 86.80% | Amoxicillin released in solution #3 ([1]; 10 min, trihydrate): 87.34% | Amoxicillin released in solution Mean ([1]; 15 min, trihydrate): 89.71% | Amoxicillin released in solution #1 ([1]; 15 min, trihydrate): 90.61% | Amoxicillin released in solution #2 ([1]; 15 min, trihydrate): 89.05% | Amoxicillin released in solution #3 ([1]; 15 min, trihydrate): 89.49% | Amoxicillin released in solution Mean ([1]; 30 min, trihydrate): 93.77% | Amoxicillin released in solution #1 ([1]; 30 min, trihydrate): 93.27% | Amoxicillin released in solution #2 ([1]; 30 min, trihydrate): 95.75% | Amoxicillin released in solution #3 ([1]; 30 min, trihydrate): 91.85% | Amoxicillin released in solution Mean ([1]; 60 min, trihydrate): 98.50% | Amoxicillin released in solution #1 ([1]; 60 min, trihydrate): 97.15% | Amoxicillin released in solution #2 ([1]; 60 min, trihydrate): 99.70% | Amoxicillin released in solution #3 ([1]; 60 min, trihydrate): 98.65% | Amoxicillin released in solution Mean ([1]; 90 min, trihydrate): 99.31% | Amoxicillin released in solution #1 ([1]; 90 min, trihydrate): 97.76% | Amoxicillin released in solution #2 ([1]; 90 min, trihydrate): 99.52% | Amoxicillin released in solution #3 ([1]; 90 min, trihydrate): 100.66% | Average Particle Size D10 [2]: 1.9 μm | Average Particle Size D50 [2]: 10.1 μm | Average Particle Size D90 [2]: 23.1 μm | Average Particle Size D100 [2]: 44.6 μm | Surface Area Mean ± SD (n = 3) [3]: 1.78 ± 0.03 m^2 · g^−1 | Contact Angle Mean ± SD (n = 4) [4]: 110.68 ± 0.23
Compound: CC1(C)S[C@@H]2[C@H](NC(=O)[C@H](N)c3ccc(O)cc3)C(=O)N2[C@H]1C(=O)O.O.O.O [entry 4, amoxicillin trihydrate]
